Measurements taken from patent publication US9650390B2, “Water-soluble taxane derivatives and uses thereof” (priority 2014, dated 2017).

How the values were obtained:
[1] = In vitro dissociation in blood plasma of rat; format: in vitro ADME, SD rats; details: fresh SD rat plasma, 37° C.; for Sampling time/Dissociation percent (%) 2 min: 2 min incubation; for Sampling time/Dissociation percent (%) 5 min: 5 min incubation; for Sampling time/Dissociation percent (%) 10 min: 10 min incubation
Description: The obtained water soluble taxane derivatives of the following formulae were formulated as 0.2 mg/ml aqueous solutions. […] After 2 min, 5 min and 10 min of incubation, 0.2 ml of solutions were respectively taken from each of the samples, and added to acetonitrile (0.4 ml) cooled to −20° C. for precipitation of protein.

[2] = test system: human prostate cancer PC-3; experiment: Inhibitory activity of docetaxel derivatives on subcutaneously xenografted tumor PC-3 in nude mice; format: in vivo; details: 33.6 mg/kg, D0 IV; for T/C (%) D20 / Tumor inhibitory percent (%) D20 / Tumor volume (mm^3) (D0) / Tumor volume (mm^3) (D20): PC-3 xenograft in nude mice; for Tumor inhibitory percent (%) D20: P = 0.000 vs control; for Tumor volume (mm^3) (D0): baseline at grouping (D0); for Weight change (%) D6: nude mice
Description: Purpose: to evaluate and compare the inhibitory activity of the water soluble docetaxel derivatives and docetaxel on subcutaneously xenografted tumor of human prostate cancer PC-3 in nude mice
Human prostate cancer PC-3 cells were subcutaneously inoculated into nude mice. After the tumor volume reached 100-150 mm^3, the animals were randomly divided into several groups, and administered with the water soluble docetaxel derivatives of the following formula and docetaxel, respectively once on the same day (D0). The tumor volume was measured 2-3 times per week, the animals were weighed and the data were recorded until day 20 (D20) after grouping.
(§1) The tumor volume (V) was calculated according to the equation: V=½×a×b^2, wherein a and b represent the length and the width, respectively.
T/C (%)=(T−T0)/(C−C0)×100, wherein T and C represent the tumor volume at the end of the experiment; and T0 and C0 represent the tumor volume at the beginning of the experiment.

[3] = In vitro dissociation in blood plasma of rabbit; format: in vitro ADME, New Zealand white rabbits; details: fresh New Zealand white rabbit plasma, 37° C.
Description: The obtained water soluble taxane derivatives of the following formulae were formulated as 0.2 mg/ml aqueous solutions. […]

[4] = test system: human ovarian cancer SK-OV-3; details: 24 mg/kg, D0-4 IV; for Body weight change (%) D4: nude mice; for T/C (%) D22 / Tumor volume (mm^3) (D22) / Tumor volume (mm^3) (D0) / Tumor inhibitory percent (%) D22: SK-OV-3 xenograft in nude mice; for Tumor volume (mm^3) (D0): baseline at grouping (D0); for Tumor inhibitory percent (%) D22: P = 0.000 vs control
Description: Purpose: to evaluate and compare the inhibitory activity of the water soluble paclitaxel derivatives, paclitaxel and Abraxane® on subcutaneously xenografted tumor of human ovarian cancer SK-OV-3 in nude mice.
Human ovarian cancer SK-OV-3 cells were subcutaneously inoculated to nude mice. After the tumor volume reached 100-150 mm^3, the animals were randomly divided into groups (D0), and administered with the water soluble paclitaxel derivatives of the following formula, paclitaxel, and Abraxane®, respectively once per day for 5 days. The tumor volume was measured 2-3 times per week, the animals were weighed and the data were recorded until day 22 (D22) after grouping.
as §1
T/C (%)=(T−T0)/(C−C0)×100, wherein T and C represent the tumor volume at the end of the experiment, and T0 and C0 represent the tumor volume at the beginning of the experiment.

| SMILES | Sampling time/Dissociation percent (%) 2 min [1] | Sampling time/Dissociation percent (%) 5 min [1] | Sampling time/Dissociation percent (%) 10 min [1] | T/C (%) D20 [2] | Tumor inhibitory percent (%) D20 [2] | Tumor volume (mm^3) (D0) [2] | Sampling time/Dissociation percent (%) 2 min [3] | Sampling time/Dissociation percent (%) 5 min [3] | Sampling time/Dissociation percent (%) 10 min [3] | Tumor volume (mm^3) (D20) [2] | Weight change (%) D6 [2] | Body weight change (%) D4 [4] | T/C (%) D22 [4] | Tumor volume (mm^3) (D22) [4] | Tumor volume (mm^3) (D0) [4] | Tumor inhibitory percent (%) D22 [4] |
| --- | --- | --- | --- | --- | --- | --- | --- | --- | --- | --- | --- | --- | --- | --- | --- | --- |
| CC(=O)O[C@@]12CO[C@@H]1C[C@H](O)[C@@]1(C)C(=O)[C@H](O)C3=C(C)[C@@H](OC(=O)[C@H](OC(=O)[C@H](F)CCN(C)C)[C@@H](NC(=O)OC(C)(C)C)c4ccccc4)C[C@@](O)([C@@H](OC(=O)c4ccccc4)[C@H]21)C3(C)C.CS(=O)(=O)O [Compound C4, 2′-O-[4-N,N-dimethylamino-2(R)-fluorobutyryl]docetaxel methanesulfonate] | 59.2% | 93.4% | 100% | −77% | 177% | 113.7 ± 2.9 mm^3 | 81.6% | 94.8% | 100% | – | – | – | – | – | – | – |
| CC(=O)O[C@@]12CO[C@@H]1C[C@H](O)[C@@]1(C)C(=O)[C@H](O)C3=C(C)[C@@H](OC(=O)[C@H](OC(=O)[C@@H](F)CCN(C)C)[C@@H](NC(=O)OC(C)(C)C)c4ccccc4)C[C@@](O)([C@@H](OC(=O)c4ccccc4)[C@H]21)C3(C)C.CS(=O)(=O)O [Compound C5, 2′-O-[4-N,N-dimethylamino-2(S)-fluorobutyryl]docetaxel methanesulfonate] | 58.9% | 93.3% | 100% | −76% | 175% | 113.4 ± 3.1 mm^3 | 81.2% | 93.1% | 100% | 26.8 ± 12.6 mm^3 | – | – | – | – | – | – |
| CC(=O)O[C@@]12CO[C@@H]1C[C@H](O)[C@@]1(C)C(=O)[C@H](O)C3=C(C)[C@@H](OC(=O)[C@H](OC(=O)C(F)CCN(C)C)[C@@H](NC(=O)OC(C)(C)C)c4ccccc4)C[C@@](O)([C@@H](OC(=O)c4ccccc4)[C@H]21)C3(C)C.CS(=O)(=O)O (stereo partly drawn) [Compound C6, 2′-O-[4-N,N-dimethylamino-2(R,S)-fluorobutyryl]docetaxel methanesulfonate] | 59.1% | 93.3% | 100% | −76% | 175% | 113.8 ± 3.0 mm^3 | 76.8% | 97.8% | 100% | 27.0 ± 12.3 mm^3 | −12.6% | – | – | – | – | – |
| CCN(C)CC[C@@H](F)C(=O)O[C@@H](C(=O)O[C@H]1C[C@@]2(O)[C@@H](OC(=O)c3ccccc3)[C@@H]3[C@]4(OC(C)=O)CO[C@@H]4C[C@H](O)[C@@]3(C)C(=O)[C@H](OC(C)=O)C(=C1C)C2(C)C)[C@@H](NC(=O)c1ccccc1)c1ccccc1.CS(=O)(=O)O [Compound C18, 2′-O-[4-N-methyl-N-ethylamino-2(R)-fluorobutyryl]paclitaxel methanesulfonate] | – | – | – | – | – | – | – | – | – | – | – | −7.0% | −53% | 55.7 ± 10.6 mm^3 | 133.6 ± 9.4 mm^3 | – |
| CCN(CC)CC[C@H](F)C(=O)O[C@@H](C(=O)O[C@H]1C[C@@]2(O)[C@@H](OC(=O)c3ccccc3)[C@@H]3[C@]4(OC(C)=O)CO[C@@H]4C[C@H](O)[C@@]3(C)C(=O)[C@H](OC(C)=O)C(=C1C)C2(C)C)[C@@H](NC(=O)c1ccccc1)c1ccccc1.O=C(O)/C=C/C(=O)O [Compound C19, 2′-O-[4-N,N-diethylamino-2(S)-fluorobutyryl]paclitaxel fumarate] | – | – | – | – | – | – | – | – | – | – | – | −8.1% | −44% | 55.7 ± 10.1 mm^3 | 133.6 ± 9.4 mm^3 | – |
| CC(=O)O[C@H]1C(=O)[C@@]2(C)[C@H]([C@H](OC(=O)c3ccccc3)[C@]3(O)C[C@H](OC(=O)[C@H](OC(=O)C(F)CCN(C)C(C)C)[C@@H](NC(=O)c4ccccc4)c4ccccc4)C(C)=C1C3(C)C)[C@]1(OC(C)=O)CO[C@@H]1C[C@@H]2O.Cl (stereo partly drawn) [Compound C20, 2′-O-[4-N-methyl-N-isopropylamino-2(R,S)-fluorobutyryl]paclitaxel hydrochloride] | – | – | – | – | – | – | – | – | – | – | – | −10.3% | −38% | 60.4 ± 12.3 mm^3 | 127.9 ± 11.4 mm^3 | 98% |
| CC(=O)OC1C(=O)C2(C)C(O)CC3OCC3(OC(C)=O)C2C(OC(=O)c2ccccc2)C2(O)CC(OC(=O)C(OC(=O)C(CCN(C)C)C(F)(F)F)C(NC(=O)c3ccccc3)c3ccccc3)C(C)=C1C2(C)C.Cc1ccc(S(=O)(=O)O)cc1 [Compound C21, 2′-O-[4-N,N-dimethylamino-2(R,S)-2-trifluoromethylbutyryl]paclitaxel p-toluene sulfonate] | – | – | – | – | – | – | – | – | – | – | – | −8.9% | −48% | 57.3 ± 11.4 mm^3 | 134.9 ± 11.4 mm^3 | – |
| CC(=O)O[C@H]1C(=O)[C@@]2(C)[C@H]([C@H](OC(=O)c3ccccc3)[C@]3(O)C[C@H](OC(=O)[C@H](OC(=O)C(CCN(C)C)C(F)F)[C@@H](NC(=O)c4ccccc4)c4ccccc4)C(C)=C1C3(C)C)[C@]1(OC(C)=O)CO[C@@H]1C[C@@H]2O.Cl (stereo partly drawn) [Compound C22, 2′-O-[4-N,N-dimethylamino-2(R,S)-2-difluoromethylbutyryl]paclitaxel hydrochloride] | – | – | – | – | – | – | – | – | – | – | – | −8.4% | −35% | 61.2 ± 13.5 mm^3 | 133.4 ± 12.6 mm^3 | 135% |
| CC(=O)OC1C(=O)C2(C)C(O)CC3OCC3(OC(C)=O)C2C(OC(=O)c2ccccc2)C2(O)CC(OC(=O)C(OC(=O)C(F)CC(C)N(C)C)C(NC(=O)c3ccccc3)c3ccccc3)C(C)=C1C2(C)C.O=C(O)C=CC(=O)O [Compound C23, 2′-O-[4-N,N-dimethylamino-2(R)-fluorovaleryl]paclitaxel maleate] | – | – | – | – | – | – | – | – | – | – | – | −9.4% | −23% | 70.8 ± 16.8 mm^3 | 135.8 ± 14.7 mm^3 | 60% |
| CC(=O)O[C@@]12CO[C@@H]1C[C@H](O)[C@@]1(C)C(=O)[C@H](O)C3=C(C)[C@@H](OC(=O)[C@H](OC(=O)C(CCN(C)C)C(F)F)[C@@H](NC(=O)OC(C)(C)C)c4ccccc4)C[C@@](O)([C@@H](OC(=O)c4ccccc4)[C@H]21)C3(C)C.Cl (stereo partly drawn) [Compound C29, 2′-O-[4-N,N-dimethylamino-2(R,S)-2-difluoromethylbutyryl]docetaxel hydrochloride] | – | – | – | −37% | 85% | 116.7 ± 3.1 mm^3 | – | – | – | 36.8 ± 13.4 mm^3 | −15.1% | – | – | – | – | – |
